# Reference: PMC2691833 (Nucleic Acids Research, 2009)
# Target: T1, EcoR124I holoenzyme (Escherichia coli, UniProt P10486)
# T1 sequence (P10486 1-1038): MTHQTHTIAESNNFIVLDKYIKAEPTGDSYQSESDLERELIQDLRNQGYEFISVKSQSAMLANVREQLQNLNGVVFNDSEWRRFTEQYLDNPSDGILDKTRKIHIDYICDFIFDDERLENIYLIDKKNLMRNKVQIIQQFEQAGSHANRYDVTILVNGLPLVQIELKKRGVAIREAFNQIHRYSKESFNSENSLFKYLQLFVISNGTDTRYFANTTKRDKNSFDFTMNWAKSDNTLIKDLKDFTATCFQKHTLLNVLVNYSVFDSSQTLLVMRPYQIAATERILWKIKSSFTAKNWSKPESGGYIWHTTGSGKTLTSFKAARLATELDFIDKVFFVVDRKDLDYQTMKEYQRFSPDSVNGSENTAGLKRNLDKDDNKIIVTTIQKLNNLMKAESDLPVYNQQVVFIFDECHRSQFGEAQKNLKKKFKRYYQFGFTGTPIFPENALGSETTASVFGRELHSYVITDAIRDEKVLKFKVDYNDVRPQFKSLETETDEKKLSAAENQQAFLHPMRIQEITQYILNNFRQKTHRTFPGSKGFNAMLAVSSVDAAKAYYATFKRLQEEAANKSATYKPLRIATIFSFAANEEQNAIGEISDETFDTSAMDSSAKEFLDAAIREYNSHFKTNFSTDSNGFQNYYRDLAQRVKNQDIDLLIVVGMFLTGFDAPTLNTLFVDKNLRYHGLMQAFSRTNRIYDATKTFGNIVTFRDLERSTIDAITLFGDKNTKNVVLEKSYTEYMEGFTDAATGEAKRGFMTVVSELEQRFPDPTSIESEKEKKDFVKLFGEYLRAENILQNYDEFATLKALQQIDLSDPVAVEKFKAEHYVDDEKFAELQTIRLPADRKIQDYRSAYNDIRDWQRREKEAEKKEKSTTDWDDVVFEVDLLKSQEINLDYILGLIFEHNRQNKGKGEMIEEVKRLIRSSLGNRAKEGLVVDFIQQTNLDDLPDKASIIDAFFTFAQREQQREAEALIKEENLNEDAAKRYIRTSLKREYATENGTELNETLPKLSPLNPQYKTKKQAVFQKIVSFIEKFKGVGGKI
# T1 sequence (P10484 1-520 partner): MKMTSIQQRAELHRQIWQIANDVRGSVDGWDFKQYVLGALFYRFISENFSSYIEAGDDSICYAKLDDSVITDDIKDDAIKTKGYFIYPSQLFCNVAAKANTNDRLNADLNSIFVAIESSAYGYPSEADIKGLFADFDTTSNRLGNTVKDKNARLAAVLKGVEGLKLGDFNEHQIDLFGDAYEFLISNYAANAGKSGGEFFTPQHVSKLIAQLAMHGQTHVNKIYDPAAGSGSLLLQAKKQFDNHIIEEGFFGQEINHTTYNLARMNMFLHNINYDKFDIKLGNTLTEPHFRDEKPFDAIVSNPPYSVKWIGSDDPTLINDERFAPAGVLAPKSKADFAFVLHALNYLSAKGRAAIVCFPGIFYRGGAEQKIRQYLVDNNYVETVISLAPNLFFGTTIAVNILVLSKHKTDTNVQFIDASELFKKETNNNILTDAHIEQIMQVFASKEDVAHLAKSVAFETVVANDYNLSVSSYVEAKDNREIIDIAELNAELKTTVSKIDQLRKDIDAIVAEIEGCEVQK
# T1 sequence (P10485 1-404 partner): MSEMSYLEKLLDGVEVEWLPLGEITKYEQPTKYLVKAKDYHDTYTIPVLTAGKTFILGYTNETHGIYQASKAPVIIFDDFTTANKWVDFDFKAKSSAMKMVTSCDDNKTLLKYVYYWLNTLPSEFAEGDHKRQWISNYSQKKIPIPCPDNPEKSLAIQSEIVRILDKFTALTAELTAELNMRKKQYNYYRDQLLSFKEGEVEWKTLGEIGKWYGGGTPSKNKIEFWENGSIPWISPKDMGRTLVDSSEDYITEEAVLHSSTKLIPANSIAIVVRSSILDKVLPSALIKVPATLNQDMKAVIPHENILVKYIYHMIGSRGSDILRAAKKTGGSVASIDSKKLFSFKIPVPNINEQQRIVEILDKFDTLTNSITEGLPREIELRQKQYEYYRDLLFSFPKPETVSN
# Details: 1 mM ATP, 5 mM Mg(OAc)2, negatively supercoiled R+- or 2R+-DNA, pH 7.5, 25 °C
structure (smiles),measurement,value
Nc1ncnc2c1ncn2[C@@H]1O[C@H](COP(=O)(O)OP(=O)(O)OP(=O)(O)O)[C@@H](O)[C@H]1O [ATP],continuous coupled spectrophotometric ATPase assay,"as total protein concentration increases, the initial rates of ATP hydrolysis increase accordingly"
